We go through 60 compounds from PubChem BioAssay AID1626 (SRMLSC, 2009).

The experiment relates to M. tuberculosis H37Rv growth inhibition. Description: M. tuberculosis H37Rv growth inhibitors, H37Rv strain (AID 1626). Particulars: for IC90: measured here: IC90 against H37Rv; for CC50: measured here: Vero cell cytotoxicity.

The structures appear in SMILES notation.

With `C=C1C(=O)O[C@@H]2C[C@@H](C)[C@@H]3C=CC(=O)[C@@]3(C)[C@@H](O)[C@H]12`, the IC50 (usually the concentration that inhibits the measured activity by half) was 3.84 µM; the IC90 (usually the concentration at which the effect reaches the 90% level) turned out to be 6.64 µM; the CC50 (in general, the concentration that lowers cell viability or growth by half) is 1.84 µM.

As to `CC1CC1C(=O)Nc1ccc(-c2ccccc2)cc1` (centres undefined), the IC50 was 0.31 µM and the IC90 is greater than 100 µM.

Turning to `CCCOC(=O)CSc1nc(N)c(C#N)c(-c2ccco2)c1C#N`, the IC50 is less than 0.195 µM and the IC90 was found to be 0.907 µM.

For the compound `Clc1ccc2nc(-c3ccccn3)c(Nc3ccc4c(c3)OCO4)n2c1`, the IC50 was 2.56 µM, the IC90 was 4.43 µM and the CC50 came to 11.1 µM.

As to `CCCn1c(NC(=O)c2ccc(Br)cc2)nc2ccccc21`, the IC50 is 17.2 µM, the IC90 is greater than 100 µM and the CC50 was greater than 40 µM.

With `CC1CC(C)CN(C(=O)/C=C/c2ccc([N+](=O)[O-])s2)C1` (centres undefined), the IC50 was 10.2 µM, the IC90 is 13.3 µM and the CC50 came to 37.4 µM.

With `O=C1c2ccccc2-n2c1nc1ccccc1c2=O`, the IC50 is less than 0.195 µM, the IC90 turned out to be 0.601 µM and the CC50 was greater than 40 µM.

In the case of `COc1ccc(CCNc2nc(N3CCCCC3)nc(N3CCCCC3)n2)cc1OC`, the IC50 was 12.4 µM, the IC90 turned out to be 18.8 µM and the CC50 was greater than 40 µM.

`Cc1cc(NC(=O)C2CCCCC2)n(-c2nc3ccccc3[nH]2)n1`: the IC50 is 2.54 µM, the IC90 was 5.5 µM and the CC50 is 38 µM.

Turning to `O=C(Oc1ccccc1Cl)c1ccc(N2CCOCC2)c([N+](=O)[O-])c1`, the IC50 is 4.09 µM and the concentration for an effect of 90% (IC90) is 11.1 µM.

As for `CCC(=C(c1ccc(OC)cc1)c1ccc(OC)cc1)c1cn(CC(O)CN(CCO)CCO)c2ccccc12` (centres undefined), the IC50 was 12.5 µM, the IC90 amounted to 13.6 µM and the CC50 worked out at 26.5 µM.

As to `CS(=O)(=O)Cc1nc2ccccc2oc1=O`, the IC50 was 1.45 µM, the IC90 came out at 2.01 µM and the CC50 was greater than 40 µM.

For `COc1ccc(/C=C/c2cc(-c3ccc(C)cc3)o[n+]2C)cc1`, the half-inhibitory concentration (IC50) was 3.21 µM, the IC90 worked out at 7.34 µM and the CC50 was greater than 40 µM.

In the case of `Cc1ccc(-c2ccc(/C=C/C(=O)c3ccccc3)o2)cc1`, the IC50 was 19.6 µM, the IC90 is greater than 100 µM and the cytotoxic concentration (CC50) worked out at 24.7 µM.

Regarding `Cc1cc(C)c(-c2csc(NC(=O)/C=C/c3cccs3)n2)c(C)c1`, the IC50 is 4.66 µM, the IC90 was determined as 8.18 µM and the 50% cytotoxic concentration (CC50) was greater than 40 µM.

`Nc1nc(Cl)cc(N2CCC(c3cc(-c4ccc(Cl)cc4)n[nH]3)CC2)n1`: the IC50 was 77.9 µM, the IC90 was greater than 100 µM and the CC50 was determined as 13.6 µM.

Take `CC(C)c1ccc(CNC(=O)CSCC(=O)Nc2ccc3ccccc3c2)cc1`: the IC50 is 18 µM and the IC90 was greater than 100 µM.

Turning to `Cc1cccc(NC(=O)c2ccc([N+](=O)[O-])o2)c1C`, the IC50 is 12.2 µM, the 90% effect concentration (IC90) is 23.9 µM and the CC50 turned out to be 11.5 µM.

Turning to `CSc1ccc(C(=O)C2CCCN(Cc3cc4ccccc4[nH]3)C2)cc1` (centres undefined), the IC50 was 2.43 µM, the IC90 was determined as 2.98 µM and the CC50 is greater than 40 µM.

On to `CO[C@H]1C=CO[C@@]2(C)Oc3c(C)c(O)c4c(O)c(c5c(c4c3C2=O)NC2(CCN(CC(C)C)CC2)N=5)=NC(=O)C(C)=CC=C[C@H](C)[C@H](O)[C@@H](C)[C@@H](O)[C@@H](C)[C@H](OC(C)=O)[C@@H]1C`, for which the IC50 is less than 0.195 µM, the IC90 is less than 0.195 µM and the CC50 is greater than 40 µM.

For the compound `Cc1ccc(NC(=O)/C=C/c2ccc([N+](=O)[O-])s2)c(C)c1`, the IC50 is 1.79 µM, the IC90 came to 4.42 µM and the cytotoxic concentration (CC50) stood at 19.5 µM.

`Nc1ccccc1SCC(=O)Nc1nc(-c2ccccc2)cs1` had an IC90 greater than 100 µM and a 50% cytotoxic concentration (CC50) greater than 40 µM.

Take `CC(C)[C@H](NC(=O)c1ccccc1Cl)C(=O)Nc1nc(-c2ccccn2)cs1`: the IC50 was 7.72 µM, the IC90 is greater than 100 µM and the CC50 came out at 9.39 µM.

Regarding `COc1ccc(NC2=NCC(Cc3ccc(Br)cc3)S2)cc1` (centres undefined), the IC50 is 10.2 µM, the IC90 was determined as 15.9 µM and the CC50 was greater than 40 µM.

For the compound `c1ccc(-c2cc3c(NCC4COc5ccccc5O4)ncnc3s2)cc1` (centres undefined), the IC90 is greater than 100 µM and the CC50 was greater than 40 µM.

On to `CCCCCCCCn1c2c(c(=N)c3ccccc31)CCC2`, for which the IC50 was 6.24 µM, the IC90 was determined as 9.17 µM and the CC50 was 9.55 µM.

On to `O=C(Nc1ccc(CN2CCOCC2)cc1)c1ccc(-c2ccc(Br)cc2)o1`, for which the IC50 was 7.09 µM, the IC90 worked out at 13.2 µM and the CC50 was found to be 32 µM.

Turning to `CC(=O)Nc1nc2ccccc2n1Cc1ccccc1C`, the IC50 was 0.2 µM, the IC90 came out at 81 µM and the CC50 was 22.5 µM.

For `CC(C)Cn1c(N)c(C(=O)COC(=O)c2cnc(Cl)c(Cl)c2)c(=O)n(C)c1=O`, the IC50 is 8.01 µM, the IC90 worked out at 20.7 µM and the CC50 was greater than 40 µM.

Regarding `C[n+]1c2n(c3ccccc31)N=C(c1cc(C(C)(C)C)c(O)c(C(C)(C)C)c1)CS2`, the IC50 is 2.54 µM, the IC90 is 3.14 µM and the CC50 was greater than 40 µM.

In the case of `CCN1CCN(Cc2ccc(NC(=O)c3ccc(C)c(NC(=O)c4c[nH]c5cc(C(F)(F)F)ccc5c4=O)c3)cc2C(F)(F)F)CC1`, the 50% inhibitory concentration (IC50) was 3.86 µM, the IC90 stood at 4.72 µM and the CC50 was 3.28 µM.

With `COc1ccc(C(CCNCc2ccc(F)cc2)c2ccc(F)cc2)cc1` (centres undefined), the IC50 was 5.7 µM, the IC90 amounted to 6.62 µM and the CC50 was 23.2 µM.

Consider `CC(=O)n1cc(N(C(=O)CCl)c2ccc(Cl)cc2)c2ccccc21`, for which the IC50 is 8.88 µM, the IC90 worked out at 19.6 µM and the CC50 amounted to 0.662 µM.

Take `CCOC(=O)c1ccc(N/C=C2/CCCC(C)C2=O)cc1` (centres undefined): the half-inhibitory concentration (IC50) was 10.9 µM and the IC90 is greater than 100 µM.

With `CCCCc1ccc(NC=C2C(=O)OC3(CCCCC3)OC2=O)cc1`, the IC50 is 6.18 µM and the IC90 was greater than 100 µM.

With `COc1cc(/C=C/C(=O)c2cccc([N+](=O)[O-])c2)cc(OC)c1OC`, the IC50 was 3.77 µM, the IC90 was found to be 11.2 µM and the cytotoxic concentration (CC50) was 18.5 µM.

For the compound `CCc1ccc(/C=C/C(=O)C2C(=O)c3ccccc3C2=O)cc1`, the IC50 was 1.76 µM, the 90% effect concentration (IC90) was determined as 2.92 µM and the CC50 is greater than 40 µM.

Regarding `c1ccc(C2[C@H]3CN(CC4CCCCC4)[C@H](c4ccccc4)C34CC2(c2cccnc2)C4)cc1` (some centres undefined), the IC50 was 15 µM and the IC90 came to 23.4 µM.

Consider `COc1cccc2sc(N(CCCN(C)C)C(=O)C(c3ccccc3)c3ccccc3)nc12`, for which the IC50 is 13.5 µM, the IC90 came to 18.4 µM and the CC50 came to 21.8 µM.

Consider `CC1(C)OC(=O)C(=Cc2ccc[nH]2)C(=O)O1`, for which the IC50 was less than 0.195 µM and the IC90 was greater than 100 µM.

On to `Cc1ccc(-c2cc(C(=O)Nc3nccs3)c3ccccc3n2)c(C)c1`, for which the IC50 is 9.6 µM, the concentration for an effect of 90% (IC90) turned out to be 11.9 µM and the CC50 was greater than 40 µM.

With `O=C(NCc1nc(-c2ccc(C(F)(F)F)cc2)no1)Nc1cc(Cl)cc(Cl)c1`, the IC50 is 5.74 µM, the IC90 turned out to be 10.6 µM and the CC50 turned out to be 12.6 µM.

As to `CN(C)c1ccc(N=Nc2nc3ccccc3n2C)cc1`, the IC50 is 0.939 µM, the IC90 was determined as 2.73 µM and the 50% cytotoxic concentration (CC50) is greater than 40 µM.

`O=C(OCC(=O)N1CCN(C(=O)c2ccco2)CC1)c1sc2ccccc2c1Cl` gave a 90% effect concentration (IC90) greater than 100 µM.

On to `COc1cccc(C(=O)Nc2ccc3nc(N4CCN(c5ncccn5)CC4)cc(C)c3c2)c1OC`, for which the IC50 is less than 0.195 µM, the IC90 came out at 1.72 µM and the CC50 was 15.2 µM.

In the case of `Cc1nc2ccc(NC(=O)COc3cccc(F)c3)cc2s1`, the 50% inhibitory concentration (IC50) was 20.6 µM and the IC90 was greater than 100 µM.

Regarding `Cc1ccc(C(=O)CC(SCC(=O)O)c2ccc([N+](=O)[O-])cc2)cc1` (centres undefined), the IC50 was 7.91 µM, the IC90 was greater than 100 µM and the CC50 is 36.8 µM.

`O=C(Nc1nc2ccccc2[nH]1)c1ccc(Cl)c([N+](=O)[O-])c1`: the IC50 was 13.7 µM, the concentration for an effect of 90% (IC90) is greater than 100 µM and the CC50 was greater than 40 µM.

Take `CCOC(=O)c1ccc(NC(=O)c2ccc(OC(C)C)c(OC)c2)cc1`: the half-inhibitory concentration (IC50) was 14.1 µM and the IC90 came out at 28.2 µM.

`Cc1ccc(C(=O)Oc2oc(-c3ccccc3)nc2C=Nc2ccc(N(C)C)cc2)cc1` had a CC50 greater than 40 µM.

For the compound `COC(=O)COc1cccc(NC(=O)COc2ccccc2)c1`, the IC50 is 2.72 µM and the IC90 stood at 4 µM.

As to `Cc1ccc(C(C)C)c(OCc2nn(CC(=O)c3ccc(OC(F)F)cc3)c3[n+]2CCCCC3)c1`, the IC50 is 1.07 µM, the IC90 worked out at 1.46 µM and the CC50 is greater than 40 µM.

Regarding `CCOC(=O)c1ccc(N/C=C/C(=O)C(C)(C)C)cc1`, the half-inhibitory concentration (IC50) is 4.61 µM and the IC90 is greater than 100 µM.

Consider `O=C(CCCSc1nnc(SCCCC(=O)c2ccc(F)cc2)s1)c1ccc(F)cc1`, for which the IC50 is 0.516 µM, the IC90 stood at 0.654 µM and the CC50 is 26.4 µM.

On to `Cc1cccc(-c2noc(-c3cc4ccccc4oc3=O)n2)c1`, for which the IC50 is 1.28 µM and the IC90 was greater than 100 µM.

As for `COc1ccccc1-c1nnc(NC(=O)C2=COCCO2)o1`, the IC50 is 8.99 µM, the IC90 is 15.5 µM and the CC50 was greater than 40 µM.

Turning to `O=C(Nc1nnc(-c2ccccn2)o1)c1cccc(Br)c1`, the concentration for half-maximal inhibition (IC50) was 12.4 µM, the IC90 was greater than 100 µM and the CC50 was greater than 40 µM.

In the case of `O=C(Cn1nc(CNc2ccc(Cl)cc2)[n+]2c1CCCCC2)c1ccc(Br)cc1`, the IC50 is 4.63 µM and the IC90 stood at 7.74 µM.

For `CC1CCCC(NCC(O)COC(c2ccc(F)cc2)c2ccc(F)cc2)C1C` (centres undefined), the half-maximal inhibitory concentration (IC50) was 5.69 µM, the IC90 came to 6.42 µM and the CC50 was determined as 24.3 µM.

On to `c1nc2n(n1)C1=C(CCCC1)C1(CCCCC1)N2`, for which the IC50 is 18.2 µM and the 90% effect concentration (IC90) was greater than 100 µM.
